Laboratory results as given in the supplement of paper PMC11451515.

Columns and labels:
Conditions in all cases: 48 h
[1] = test system: NOMO1; test: cell viability relative to DMSO control; higher = less cytotoxic
Outline: (§1)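 Library compounds in DMSO were pin-dosed in an 11-point threefold series (47 μM to 0.79 nM) onto leukemia cells in 1536-well plates (5 μl). Plates held 500 cells/well of NOMO1 or SEM or 1000 cells/well of P12-Ichikawa, each adapted for at least four passages in each medium. Luminescence was read with CellTiter-Glo One after 48 h at 37°C. Viability means the per-plate percentage relative to DMSO wells, using cell-free wells as background.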

[2] = test system: SEM cells; test: as above
Outline: as §1

[3] = test system: P12-Ichikawa; test: as above
Outline: as §1

[4] = test system: NOMO1; test: AUC of viability dose-response curve (% viability x log10 dose units); higher = less sensitive
Outline: (§2)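 In 1536-well plates, leukemia cells adapted to each medium (500 or 1000 cells/well) were exposed for 48 h at 37°C to library compounds in DMSO across 11 threefold doses, 47 μM down to 0.79 nM. Viability was read by CellTiter-Glo One luminescence and normalised per plate to DMSO and cell-free wells. A four-parameter log-logistic fit over log10 doses was integrated by trapezoidal rule. This yielded the area under the curve, with over-full-viability curves scaled and quality-control failures dropped.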

[5] = test system: SEM cells; test: as above
Outline: as §2

[6] = test system: P12-Ichikawa; test: as above
Outline: as §2

C/C(=C\c1csc(C)n1)[C@@H]1C[C@@H]2O[C@]2(C)CCC[C@H](C)[C@H](O)[C@@H](C)C(=O)C(C)(C)[C@@H](O)CC(=O)O1
cell viability [%]
Conditions	[1]	[2]	[3]
HPLM + 10% dialyzed FBS, 0.000781 µM	22.6	20.1	33.8
HPLM + 10% dialyzed FBS, 0.00234 µM	28.6	19.1	32.1
HPLM + 10% dialyzed FBS, 0.00702 µM	32	23	28.8
HPLM + 10% dialyzed FBS, 0.0211 µM	27.8	36.1	58.9
HPLM + 10% dialyzed FBS, 0.0632 µM	29.6	21	28.1
HPLM + 10% dialyzed FBS, 0.19 µM	27.8	22	22.6
HPLM + 10% dialyzed FBS, 0.569 µM	29.6	19.7	23.1
HPLM + 10% dialyzed FBS, 1.71 µM	35	19.5	25.3
HPLM + 10% dialyzed FBS, 5.12 µM	25.2	18.2	30.8
HPLM + 10% dialyzed FBS, 15.4 µM	27.6	20.3	17.1
HPLM + 10% dialyzed FBS, 46.1 µM	31.3	19.9	21.4
RPMI 5 mM glucose + 10% FBS, 0.000781 µM	14.1	11.4	18.2
RPMI 5 mM glucose + 10% FBS, 0.00234 µM	18.3	15.3	19.1
RPMI 5 mM glucose + 10% FBS, 0.00702 µM	20.6	17.3	23.7
RPMI 5 mM glucose + 10% FBS, 0.0211 µM	18.3	19.1	44.1
RPMI 5 mM glucose + 10% FBS, 0.0632 µM	20.3	16.8	24.6
RPMI 5 mM glucose + 10% FBS, 0.19 µM	15.9	17.3	22.6
RPMI 5 mM glucose + 10% FBS, 0.569 µM	16.8	15.8	24.3
RPMI 5 mM glucose + 10% FBS, 1.71 µM	19.2	14.1	22.7
RPMI 5 mM glucose + 10% FBS, 5.12 µM	15.3	13.1	25.6
RPMI 5 mM glucose + 10% FBS, 15.4 µM	14.5	14.9	24.2
RPMI 5 mM glucose + 10% FBS, 46.1 µM	14.9	16.9	27
RPMI 5 mM glucose + 10% dialyzed FBS, 0.000781 µM	18.1	20.7	44.5
RPMI 5 mM glucose + 10% dialyzed FBS, 0.00234 µM	22.2	18.4	34.4
RPMI 5 mM glucose + 10% dialyzed FBS, 0.00702 µM	22.9	14	31.2
RPMI 5 mM glucose + 10% dialyzed FBS, 0.0211 µM	39.2	50.3	58
RPMI 5 mM glucose + 10% dialyzed FBS, 0.0632 µM	23.9	20.6	37.6
RPMI 5 mM glucose + 10% dialyzed FBS, 0.19 µM	24.5	16.9	35.4
RPMI 5 mM glucose + 10% dialyzed FBS, 0.569 µM	21.8	14.3	32.6
RPMI 5 mM glucose + 10% dialyzed FBS, 1.71 µM	21.4	16.2	32.8
RPMI 5 mM glucose + 10% dialyzed FBS, 5.12 µM	21.9	16.6	43.7
RPMI 5 mM glucose + 10% dialyzed FBS, 15.4 µM	25	16.3	35.5
RPMI 5 mM glucose + 10% dialyzed FBS, 46.1 µM	20	15.6	38

AUC of viability dose-response curve
Conditions	[4]	[5]	[6]
HPLM + 10% dialyzed FBS	138	104	139
RPMI 5 mM glucose + 10% FBS	82	74.6	120
RPMI 5 mM glucose + 10% dialyzed FBS	114	95.4	184

CCc1c(O)cc(O)c(C(=O)c2ccc(OCCN3CCOCC3)c(OC)c2)c1CC(=O)N(CCOC)CCOC
cell viability [%]
Conditions	[1]	[2]	[3]
HPLM + 10% dialyzed FBS, 0.000781 µM	102	115	102
HPLM + 10% dialyzed FBS, 0.00234 µM	106	124	105
HPLM + 10% dialyzed FBS, 0.00702 µM	117	118	118
HPLM + 10% dialyzed FBS, 0.0211 µM	127	120	112
HPLM + 10% dialyzed FBS, 0.0632 µM	127	116	112
HPLM + 10% dialyzed FBS, 0.19 µM	119	116	105
HPLM + 10% dialyzed FBS, 0.569 µM	114	111	104
HPLM + 10% dialyzed FBS, 1.71 µM	80.7	103	87.6
HPLM + 10% dialyzed FBS, 5.12 µM	21.2	47.3	59.9
HPLM + 10% dialyzed FBS, 15.4 µM	13.7	25.5	41.1
HPLM + 10% dialyzed FBS, 46.1 µM	11.6	17	40.9
RPMI 5 mM glucose + 10% FBS, 0.000781 µM	101	122	100
RPMI 5 mM glucose + 10% FBS, 0.00234 µM	101	116	101
RPMI 5 mM glucose + 10% FBS, 0.00702 µM	113	153	113
RPMI 5 mM glucose + 10% FBS, 0.0211 µM	106	121	105
RPMI 5 mM glucose + 10% FBS, 0.0632 µM	118	143	108
RPMI 5 mM glucose + 10% FBS, 0.19 µM	124	117	103
RPMI 5 mM glucose + 10% FBS, 0.569 µM	109	81.9	93.5
RPMI 5 mM glucose + 10% FBS, 1.71 µM	93.4	91.3	78
RPMI 5 mM glucose + 10% FBS, 5.12 µM	21.6	40.8	41.1
RPMI 5 mM glucose + 10% FBS, 15.4 µM	12.3	20.8	32.7
RPMI 5 mM glucose + 10% FBS, 46.1 µM	11.3	19	35.4
RPMI 5 mM glucose + 10% dialyzed FBS, 0.000781 µM	115	115	106
RPMI 5 mM glucose + 10% dialyzed FBS, 0.00234 µM	114	103	102
RPMI 5 mM glucose + 10% dialyzed FBS, 0.00702 µM	114	111	105
RPMI 5 mM glucose + 10% dialyzed FBS, 0.0211 µM	108	106	110
RPMI 5 mM glucose + 10% dialyzed FBS, 0.0632 µM	114	108	110
RPMI 5 mM glucose + 10% dialyzed FBS, 0.19 µM	106	105	104
RPMI 5 mM glucose + 10% dialyzed FBS, 0.569 µM	102	86.5	85
RPMI 5 mM glucose + 10% dialyzed FBS, 1.71 µM	98.8	68.1	84.5
RPMI 5 mM glucose + 10% dialyzed FBS, 5.12 µM	28.2	32.9	42.6
RPMI 5 mM glucose + 10% dialyzed FBS, 15.4 µM	16.4	24.1	32
RPMI 5 mM glucose + 10% dialyzed FBS, 46.1 µM	14.1	15	35

AUC of viability dose-response curve
Conditions	[4]	[5]	[6]
HPLM + 10% dialyzed FBS	359	383	399
RPMI 5 mM glucose + 10% FBS	367	347	384
RPMI 5 mM glucose + 10% dialyzed FBS	375	355	383

O=C(Nc1ccc([N+](=O)[O-])cc1Cl)c1cc(Cl)ccc1O
cell viability [%]
Conditions	[1]	[2]	[3]
HPLM + 10% dialyzed FBS, 0.000781 µM	103	84.5	95.3
HPLM + 10% dialyzed FBS, 0.00234 µM	94.9	98.7	105
HPLM + 10% dialyzed FBS, 0.00702 µM	99.2	93.1	98.6
HPLM + 10% dialyzed FBS, 0.0211 µM	107	98.2	102
HPLM + 10% dialyzed FBS, 0.0632 µM	98.7	99.7	107
HPLM + 10% dialyzed FBS, 0.19 µM	120	97.6	106
HPLM + 10% dialyzed FBS, 0.569 µM	111	104	105
HPLM + 10% dialyzed FBS, 1.71 µM	57.4	43.3	88
HPLM + 10% dialyzed FBS, 5.12 µM	30	24.2	46
HPLM + 10% dialyzed FBS, 15.4 µM	40.3	64.1	12.9
HPLM + 10% dialyzed FBS, 46.1 µM	31.7	33.9	24.7
RPMI 5 mM glucose + 10% FBS, 0.000781 µM	85.1	75	92.2
RPMI 5 mM glucose + 10% FBS, 0.00234 µM	86.4	89.7	90.9
RPMI 5 mM glucose + 10% FBS, 0.00702 µM	84.1	96.8	96
RPMI 5 mM glucose + 10% FBS, 0.0211 µM	93	101	92.9
RPMI 5 mM glucose + 10% FBS, 0.0632 µM	94.5	101	104
RPMI 5 mM glucose + 10% FBS, 0.19 µM	89.1	105	106
RPMI 5 mM glucose + 10% FBS, 0.569 µM	82.7	117	102
RPMI 5 mM glucose + 10% FBS, 1.71 µM	62.3	22.1	71.6
RPMI 5 mM glucose + 10% FBS, 5.12 µM	32.5	19.7	33
RPMI 5 mM glucose + 10% FBS, 15.4 µM	72.8	3.97	17
RPMI 5 mM glucose + 10% FBS, 46.1 µM	48.7	32.3	26.3
RPMI 5 mM glucose + 10% dialyzed FBS, 0.000781 µM	88.8	96.9	81.5
RPMI 5 mM glucose + 10% dialyzed FBS, 0.00234 µM	94.3	85.7	92.7
RPMI 5 mM glucose + 10% dialyzed FBS, 0.00702 µM	91.3	88.8	81.4
RPMI 5 mM glucose + 10% dialyzed FBS, 0.0211 µM	90.9	103	91.9
RPMI 5 mM glucose + 10% dialyzed FBS, 0.0632 µM	103	96.7	87.2
RPMI 5 mM glucose + 10% dialyzed FBS, 0.19 µM	96.4	99.2	88
RPMI 5 mM glucose + 10% dialyzed FBS, 0.569 µM	101	123	94.2
RPMI 5 mM glucose + 10% dialyzed FBS, 1.71 µM	50.8	19.6	69
RPMI 5 mM glucose + 10% dialyzed FBS, 5.12 µM	34.6	17.1	31.4
RPMI 5 mM glucose + 10% dialyzed FBS, 15.4 µM	50.9	66.3	32.1
RPMI 5 mM glucose + 10% dialyzed FBS, 46.1 µM	47.9	47	5.22

AUC of viability dose-response curve
Conditions	[4]	[5]	[6]
HPLM + 10% dialyzed FBS	375	369	386
RPMI 5 mM glucose + 10% FBS	363	336	368
RPMI 5 mM glucose + 10% dialyzed FBS	372	370	335
